# From patent US4658029A, “1-Hpyrazolo[3,4-b]pyridines” (Hoechst-Roussel Pharmaceuticals Inc., priority 1986, dated 1987)
# Test system: spontaneous hypertensive rat
# Test: Antihypertensive activity in the spontaneous hypertensive rat (SHR), indirect tail cuff method
# Format: in vivo
# Settings: 50 mg/kg, PO, treated orally for three days, drop measured on third day
# Protocol: The 6H-isoxazolo[5,4-d]pyrazolo[…] of formula I of the present invention are useful as antihypertensive agents due to their ability to depress blood pressure in mammals. Antihypertensive activity is measured in the spontaneous hypertensive rat by the indirect tail cuff method described in "Methods in Pharmacology", A. Schwartz, Ed., Vol. I, Appleton-Century Crofts, New York, N.Y., 1971, p. 135. In this procedure a group of five animals are treated orally for three days with the test compound in relation to a control group of the same number. The drop in blood pressure is measured on the third day following administration. The antihypertensive activities of some of the compounds, expressed as a decrease in mean arterial blood pressure (in mmHg), are given in Table I.
row,Compound,Antihypertensive SHR (decrease in mean arterial blood pressure) [mmHg]
1,"CCn1ncc2c3onc(-c4ccc(Cl)cc4)c3cnc21 [3-(4-Chlorophenyl)-6-ethyl-6H-isoxazolo[5,4-d]pyrazolo[3,4-b]pyridine]",62
2,"CCn1ncc2c3onc(-c4cccc(C)c4)c3cnc21 [6-Ethyl-3-(3-tolyl)-6H-isoxazolo[5,4-d]pyrazolo[3,4-b]pyridine]",33
3,"CCn1ncc2c3onc(-c4ccc(OC)cc4)c3cnc21 [6-Ethyl-3-(4-methoxyphenyl)-6H-isoxazolo[5,4-d]pyrazolo[3,4-b]pyridine]",31
4,"C[C@](N)(Cc1ccc(O)c(O)c1)C(=O)O [alpha-Methyldopa, reference compound]",40

# Test system: 2-phenyl-1,4-benzoquinone-induced writhing
# Test: 2-phenyl-1,4-benzoquinone-induced writhing test in mice (analgesic activity, PQW)
# Format: in vivo
# Settings: 20 mg/kg, SC
row,Compound,"Analgesic PQW, % decrease (phenylquinone writhing) [%]"
1,"6-Ethyl-3-tolyl-6H-isoxazolo[5,4-d]pyrazolo[3,4-b]pyridine",48
2,"CCn1ncc2c3onc(-c4ccccn4)c3cnc21 [6-Ethyl-3-(2-pyridyl)-6H-isoxazolo[5,4-d]pyrazolo[3,4-b]pyridine]",42
3,"CCn1ncc2c3onc(-c4cccc(F)c4)c3cnc21 [6-Ethyl-3-(3-fluorophenyl)-6H-isoxazolo[5,4-d]pyrazolo[3,4-b]pyridine]",55
4,"CCn1ncc2c3onc(-c4cccc(O)c4)c3cnc21 [6-Ethyl-3-(3-hydroxyphenyl)-6H-isoxazolo[5,4-d]pyrazolo[3,4-b]pyridine]",48
5,"CCn1ncc2c3onc(-c4ccc(F)cc4)c3cnc21 [6-Ethyl-3-(4-fluorophenyl)-6H-isoxazolo[5,4-d]pyrazolo[3,4-b]pyridine]",31

# Same assay, conditions: Mus musculus, sc, prior art compound, read-out: ED50 (phenylquinone writhing)
row,Compound,ED50 [mg/kg]
1,"CCC(=O)O[C@](Cc1ccccc1)(c1ccccc1)[C@H](C)CN(C)C [Propoxyphene, reference compound]",3.9
